{"source": "patent US6423696B1", "about": "“Inhibition of arylamine N-acetyl transferase” (The United States of America, as represented by the …, priority 1999, dated 2002)", "key": {"[1]": {"target": "T1, NAT-2 (Homo sapiens, UniProt P11245)", "T1 sequence (P11245 1-290)": "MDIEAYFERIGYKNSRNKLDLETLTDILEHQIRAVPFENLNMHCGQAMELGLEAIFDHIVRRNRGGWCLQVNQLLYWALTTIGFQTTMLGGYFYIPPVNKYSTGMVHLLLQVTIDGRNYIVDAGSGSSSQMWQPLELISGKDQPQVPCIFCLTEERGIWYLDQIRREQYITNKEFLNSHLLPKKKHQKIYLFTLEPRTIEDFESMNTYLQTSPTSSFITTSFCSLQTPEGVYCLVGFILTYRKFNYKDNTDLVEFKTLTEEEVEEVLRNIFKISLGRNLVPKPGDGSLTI", "test": "Acetylation in human liver subcellular preparation (cytosol), NAT-2 substrates, cross inhibition", "type": "biochemical", "set-up": "from tissue; host or cells: human liver cytosol (105,000 g supernatant); key to inhibition of acetylation of substrate DDS / inhibition of acetylation of substrate SMZ / inhibition of acetylation of substrate INH: ++ = strong inhibition; −− = no inhibition", "conditions": "for formation of acetylated metabolite, substrate incubated alone: incubated separately with human liver cytosol", "procedure": "The reaction was terminated by the addition of perchloric acid to a final concentration of 1.5%.\nINH, DDS, SMZ were incubated with human liver subcellular preparations as described in Example 1. The reactions were allowed to proceed for thirty minutes at 37° C. before termination by addition of perchloric acid. […] For INH, 1-octanesulfonic acid (5 mM) was added to the mobile phase."}, "[2]": {"target": "T2, NAT-1 (Homo sapiens, UniProt P18440)", "T2 sequence (P18440 1-290)": "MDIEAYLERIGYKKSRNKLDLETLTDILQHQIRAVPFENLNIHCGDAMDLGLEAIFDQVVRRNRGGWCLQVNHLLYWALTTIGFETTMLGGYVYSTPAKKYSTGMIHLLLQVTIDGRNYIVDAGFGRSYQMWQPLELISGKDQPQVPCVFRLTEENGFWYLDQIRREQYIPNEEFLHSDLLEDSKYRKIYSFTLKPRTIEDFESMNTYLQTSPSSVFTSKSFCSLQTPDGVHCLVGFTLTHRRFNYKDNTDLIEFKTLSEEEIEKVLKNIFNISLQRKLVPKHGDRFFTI", "test": "Acetylation in human liver subcellular preparation (cytosol), NAT-1 substrates, HPLC of N-acetylated metabolites", "procedure": "Human liver was homogenized and prepared by high-speed differential centrifugation. A preliminary centrifugation was performed at 13,000 g for 20 min.\nThe formation of N-acetylated metabolites was quantified by HPLC. Samples from the incubates were injected onto a reverse-phase column (e.g., Waters Symmetry C18, 5 micron, 4.6×150 mm). […] Drugs and their N-acetylated metabolites were quantitated by UV absorption using a diode-array detector.\nThe substrates assayed above were then co-incubated with human liver subcellular preparations."}, "[3]": {"target": "T2, NAT-1", "conditions": "4 hours", "quoted_text": "Human hepatocytes were incubated at 37° C. at a ratio of 1 million cells per ml in modified Williams E buffer. Either cryopreserved hepatocytes in suspension or freshly-isolated hepatocytes attached to microtiter plates were used. The reaction was initiated by addition of substrate, and terminated after 4 hours by the addition of perchloric acid. As before, parallel incubations were conducted for drug alone versus drug plus potential inhibitors. Percent inhibition was calculated from the ratio of [Acetylated metabolite]/[parent] with and without the potential inhibitor."}, "[4]": {"target": "T2, NAT-1", "conditions": "human volunteer", "procedure": "On the fourth and fifth days, PAS was also administered at its standard dose of 4 g every 8 hours."}, "[5]": {"target": "T1, NAT-2", "test": "Acetylation in human hepatocyte culture, NAT-2 substrates", "type": "cell-based", "conditions": "human hepatocytes", "procedure": "INH, DDS and SMZ were incubated with human hepatocytes as described in Example 1. Parallel cultures were conducted for each drug alone and each drug plus dichlorphenamide as a potential inhibitor. An additional culture of DDS was incubated with SMZ, a potential inhibitor. […] In addition, SMZ inhibited acetylation of DDS."}, "[6]": {"conditions": "human liver cytosol, 30 min, 37° C."}}, "note": "Where two headings read alike, the source gives them in different places."}
{"smiles": "CCC1(c2ccc(N)cc2)CCC(=O)NC1=O", "note": "(stereo not shown) [AG, aminoglutethimide]", "values": [{"measurement": "inhibition of acetylation of substrate SMZ", "setting": "[1]; [6]", "value": "++"}]}
{"smiles": "Nc1ccc(S(=O)(=O)c2ccc(N)cc2)cc1", "note": "[DDS, dapsone]", "values": [{"measurement": "formation of acetylated metabolite, substrate incubated alone", "setting": "[1]", "value": "Acetylated metabolites were found"}]}
{"smiles": "NNC(=O)c1ccncc1", "note": "[INH, isoniazid]", "values": [{"measurement": "formation of acetylated metabolite, substrate incubated alone", "setting": "[1]", "value": "Acetylated metabolites were found"}, {"measurement": "inhibition of acetylation of substrate DDS", "setting": "[1]; [6]", "value": "++"}]}
{"smiles": "Nc1ccc(C(=O)O)cc1", "note": "[PABA, para-amino-benzoic acid]", "values": [{"measurement": "inhibition of acetylation to Ac-PAS", "setting": "[2]; 200 μM inhibitor co-incubated with 20 μM PAS, human liver cytosol, 15 min, 37° C.", "value": "no Ac-PAS was detected"}]}
{"smiles": "Nc1ccc(C(=O)O)c(O)c1", "note": "[PAS, para-amino-salicylate]", "values": [{"measurement": "reduction of Ac-SMX formation", "setting": "[3]; 200 μM PAS co-incubated with 200 μM SMX, human hepatocytes", "value": 60, "unit": "%"}, {"measurement": "formation of acetylated metabolite, substrate incubated alone", "setting": "[3]; 200 μM incubated separately with human hepatocytes", "value": "formation of Ac-PAS and Ac-SMX"}, {"measurement": "PAS concentrations in plasma on Day 5", "setting": "[4]; PAS 4 g every 8 hours, HPLC, FIG. 5", "value": "exceed the levels required to inhibit NAT-1"}, {"measurement": "plasma concentration of Ac-SMX, Day 5 (with PAS) vs Day 3 (baseline)", "setting": "[4]; SMX 500 mg every 12 hours for 5 days, PAS 4 g every 8 hours on days 4 and 5, FIG. 2", "value": "almost completely abolished"}, {"measurement": "inhibition of acetylation to Ac-PABA", "setting": "[2]; 200 μM inhibitor co-incubated with 20 μM PABA, human liver cytosol, 15 min, 37° C.", "value": "blockage of all measurable acetylation"}, {"measurement": "inhibition of acetylation to Ac-SMX", "setting": "[2]; 200 μM inhibitor co-incubated with 200 μM SMX, human liver cytosol, 15 min, 37° C.", "value": 50, "unit": "%"}, {"measurement": "formation of acetylated metabolite, substrate incubated alone", "setting": "[2]; human liver subcellular preparation, HPLC, FIG. 1", "value": "a single metabolic peak"}]}
{"smiles": "Cc1cc(C)nc(NS(=O)(=O)c2ccc(N)cc2)n1", "note": "[SMZ, sulphamethazine]", "values": [{"measurement": "formation of acetylated metabolite, substrate incubated alone", "setting": "[1]", "value": "Acetylated metabolites were found"}, {"measurement": "inhibition of acetylation of substrate DDS", "setting": "[1]; [6]", "value": "++"}, {"measurement": "inhibition of acetylation of DDS", "setting": "[5]; substrate DDS", "value": "inhibited"}]}
{"smiles": "NS(=O)(=O)c1cc(Cl)c(Cl)c(S(N)(=O)=O)c1", "note": "[dichlorphenamide]", "values": [{"measurement": "inhibition of acetylation of substrate DDS", "setting": "[1]; [6]", "value": "++"}, {"measurement": "inhibition of acetylation of substrate INH", "setting": "[1]; substrate INH, human liver cytosol, 30 min, 37° C.", "value": "−−"}, {"measurement": "inhibition of acetylation of substrate SMZ", "setting": "[1]; [6]", "value": "++"}, {"measurement": "inhibition of acetylation of all substrates (INH, DDS, SMZ)", "setting": "[5]; substrates INH, DDS and SMZ", "value": "strongly inhibited"}]}
